Reference: the RepoRT retention time repository

Experiment: HILIC, Waters ACQUITY UPLC BEH Amide, 100 × 2.1 mm, 1.7 µm; A: water + 0.125% formic acid + 10 mM ammonium formate; B: 5% water + 95% acetonitrile + 0.125% formic acid + 10 mM ammonium formate; gradient (min/%B) 0/100 2/100 7.7/70 9.5/40 10.25/30 12.75/100 17/100
Conditions: stereoisomer not certain

| LC retention time [min] | Compound |
| --- | --- |
| 7.8 | NC(=O)NC(CCC(=O)O)C(=O)O (stereo unspecified) [Ureidoglutaric acid] |
| 8.97 | O=c1ccn(C2OC(COP(=O)(O)O)C(O)C2O)c(=O)[nH]1 (stereo unspecified) [Uridine 5'-monophosphate] |
| 4.72 | O=c1ccn(C2OC(CO)C(O)C2O)c(=O)[nH]1 (stereo unspecified) [Uridine] |
| 7.24 | CC(C)C(N)C(=O)O (stereo unspecified) [Valine] |
| 1.69 | CCCCC(=O)N(Cc1ccc(-c2ccccc2-c2nn[nH]n2)cc1)C(C(=O)O)C(C)C (stereo unspecified) [Valsartan] |
| 5.53 | CC(=O)OC1CC2CCC3C(CCC4(C)C3CC([N+]3(C)CCCCC3)C4OC(C)=O)C2(C)CC1N1CCCCC1 (stereo unspecified) [Vercuronium] |
| 3.7 | CCC1(O)CC2CN(CCc3c([nH]c4ccccc34)C(C(=O)OC)(c3cc4c(cc3OC)N(C=O)C3C(O)(C(=O)OC)C(OC(C)=O)C5(CC)C=CCN6CCC43C65)C2)C1 (stereo unspecified) [Vincristine] |
| 5.76 | CCC1(O)CC2CN(CCc3c([nH]c4ccccc34)C(C(=O)OC)(c3cc4c(cc3OC)N(C)C3C(O)(C(N)=O)C(O)C5(CC)C=CCN6CCC43C65)C2)C1 (stereo unspecified) [Vindesine] |
| 4.76 | CCC1=CC2CN(C1)Cc1c([nH]c3ccccc13)C(C(=O)OC)(c1cc3c(cc1OC)N(C)C1C(O)(C(=O)OC)C(OC(C)=O)C4(CC)C=CCN5CCC31C54)C2 (stereo unspecified) [Vinorelbine] |
| 5.33 | O=c1cc(-c2ccc(O)cc2)oc2c(C3OC(CO)C(O)C(O)C3O)c(O)cc(O)c12 (stereo unspecified) [Vitexin] |
| 0.99 | CC(=O)CC(c1ccccc1)c1c(O)c2ccccc2oc1=O (stereo unspecified) [Warfarin] |
| 7.3 | O=c1[nH]c(=O)c2ncn(C3OC(CO)C(O)C3O)c2[nH]1 (stereo unspecified) [Xanthosine] |
| 1.23 | CC(c1cc2ccccc2s1)N(O)C(N)=O (stereo unspecified) [Zileuton] |
| 7.06 | N[C@H]1[C@@H](OP(=O)(O)O)O[C@H](CO)[C@H](O)[C@@H]1O [alpha-Galactosamine-1-phosphate] |
| 0.92 | CSCCC(=O)C(=O)O [alpha-Keto-gamma-(methylthio)butyric acid] |
| 8.68 | C[C@](N)(Cc1cnc[nH]1)C(=O)O [alpha-Methylhistidine] |
| 8.02 | NCCC(=O)O [beta-Alanine] |
| 4.55 | CC(C)(O)CC(=O)O [beta-Hydroxyisovaleric acid] |
| 9.77 | NCC(O)CCC(N)C(=O)O (stereo unspecified) [delta-Hydroxylysine] |
| 7.86 | NCCCC(=O)O [gamma-Aminobutyric Acid] |
| 8.98 | NC(CCC(=O)NC(CS)C(=O)O)C(=O)O (stereo unspecified) [gamma-Glutamyl-cysteine] |
| 9.55 | NC(=O)CCC(NC(=O)CCC(N)C(=O)O)C(=O)O (stereo unspecified) [gamma-Glutamylglutamine] |
| 8.1 | CC(C)CC(NC(=O)CCC(N)C(=O)O)C(=O)O (stereo unspecified) [gamma-Glutamylleucine] |
| 8.55 | CSCCC(NC(=O)CCC(N)C(=O)O)C(=O)O (stereo unspecified) [gamma-Glutamylmethionine] |
| 8.52 | NC(CCC(=O)NC(Cc1ccc(O)cc1)C(=O)O)C(=O)O (stereo unspecified) [gamma-Glutamyltyrosine] |
| 9.74 | CC(OP(=O)(O)O)C(N)C(=O)O (stereo unspecified) [o-Phosphothreonine] |
| 2.02 | CN1C(=O)C(O)CC1c1cccnc1 (stereo not drawn) [trans-3'-Hydroxycotinine] |
| 4.64 | OCC1OC(Oc2cc(O)cc(C=Cc3ccc(O)cc3)c2)C(O)C(O)C1O (stereo not drawn) [trans-Piceid] |

Second part, the compound before the results:

| Compound | LC retention time [min] |
| --- | --- |
| CN1CCc2cc(Cl)c(O)cc2C(c2ccccc2)C1 (stereo unspecified) [UNII-UGT5535REQ] | 2.89 |
| O=c1cc[nH]c(=O)[nH]1 [Uracil] | 2.4 |
| COc1ccccc1N1CCN(CCCNc2cc(=O)n(C)c(=O)n2C)CC1 [Urapidil] | 4.58 |
| O=C(O)C=Cc1cnc[nH]1 [Urocanic acid] | 3.69 |
| CC(C)C(N)C(=O)OCCOCn1cnc2c(=O)[nH]c(N)nc21 (stereo unspecified) [Valaciclovir] | 6.83 |
| Cc1onc(-c2ccccc2)c1-c1ccc(S(N)(=O)=O)cc1 [Valdecoxib] | 1.01 |
| COc1cc(C=O)ccc1O [Vanillin] | 1.15 |
| CCCc1nc(C)c2c(=O)[nH]c(-c3cc(S(=O)(=O)N4CCN(CC)CC4)ccc3OCC)nn12 [Vardenafil] | 1.7 |
| COc1ccc(C(CN(C)C)C2(O)CCCCC2)cc1 (stereo unspecified) [Venlafaxine] | 2.44 |
| OC1CCCCC1N1CCC(c2ccccc2)CC1 (stereo unspecified) [Vesamicol] | 2.65 |
| C=COC(N)=O [Vinyl Carbamate] | 1.34 |
| Cc1ccnc2c1NC(=O)c1cccnc1N2C1CC1 [Viramune] | 1.16 |
| CC(c1ncncc1F)C(O)(Cn1cncn1)c1ccc(F)cc1F (stereo unspecified) [Voriconazole] | 1.02 |
| NC(Cn1ccc(=O)[nH]c1=O)C(=O)O (stereo unspecified) [Willardiine] | 8.72 |
| CN(CCO)CC(O)Cn1cnc2c1c(=O)n(C)c(=O)n2C (stereo unspecified) [Xanthinol] | 6.01 |
| COc1c2occc2cc2ccc(=O)oc12 [Xanthotoxin] | 1.04 |
| COc1cc(N)c(Cl)cc1C(=O)NC1CN2CCC1CC2 (stereo unspecified) [Zacopride] | 4.66 |
| COc1cc(C(=O)NS(=O)(=O)c2ccccc2C)ccc1Cc1cn(C)c2ccc(NC(=O)OC3CCCC3)cc12 [Zafirlukast] | 1 |
| CCN(C(C)=O)c1cccc(-c2ccnc3c(C#N)cnn23)c1 [Zaleplon] | 1.02 |
| COc1cc(-c2ccc(=O)[nH]n2)ccc1OC(F)F [Zardaverine] | 1.19 |
| CC1CCCC(O)CCCCCc2cc(O)cc(O)c2C(=O)O1 (stereo unspecified) [Zeranol] | 1.11 |
| CN(C)CCc1c[nH]c2ccc(CC3COC(=O)N3)cc12 (stereo unspecified) [Zolmitriptan] | 4.8 |
| Cc1ccc(-c2nc3ccc(C)cn3c2CC(=O)N(C)C)cc1 [Zolpidem] | 1.62 |
| C=C1CCOC1=O [alpha-Methylene-gamma-butyrolactone] | 1.05 |
| CC1=C2C3OC(=O)C(C)C3CCC2(C)C=CC1=O (stereo not drawn) [alpha-Santonin] | 1.07 |
| CNC[C@H](N)C(=O)O [beta-N-Methylaminoalanine] | 9.32 |
| CN(C)c1ccc(N=Nc2ccccc2)cc1 [p-(Dimethylamino)azobenzene [methyl yellow]] | 0.93 |
| O=C(O)C=Cc1ccc(O)cc1 [p-Coumaric acid] | 1.38 |
